The source of these data is patent US8778881B2 (priority 2004, dated 2014).

The assay addresses T1, hV1a receptor (Homo sapiens, UniProt P37288).
T1 construct: expressed in transfected cells; host or cells: HEK-293 cells (transient transfection)
Briefly: hV1a receptor transcriptional reporter (luciferase) agonist assay in HEK-293 cells. The following applies: read-out: EC50 hV1a receptor. It counts as cell-based. How it is done:
Agonist activity of compounds on the hV1a receptor was determined in a transcriptional reporter assay by transiently transfecting a hV1a receptor expression DNA into HEK-293 cells in concert with a reporter DNA containing intracellular calcium responsive promoter elements regulating expression of firefly luciferase. See Boss, V., Talpade, D. J., Murphy, T. J. J. Biol. Chem. 1996, May 3; 271(18), 10429-10432 for further guidance on this assay. […] To determine selectivity, compounds were tested in luciferase-based transcriptional reporter assays expressing the human oxytocin (hOT) receptor. Assays for other receptors (hV2, hV1b, rat V1a and rat V2) were also conducted.
The EC50 value given is the geometric mean expressed in nanomol/L (nM). Selectivity values are given as EC50 ratios.

Molecules are shown by their SMILES. Bridge positions count the residues as written; N and C are the ends. Square brackets hold non-standard residues; d marks the D form. Peptide text beside a SMILES is read from it. Ala(2-furyl) = N[C@@H](Cc1ccco1)C(=O)O; Orn = NCCC[C@H](N)C(=O)O

T1 sequence (P37288 whole entry): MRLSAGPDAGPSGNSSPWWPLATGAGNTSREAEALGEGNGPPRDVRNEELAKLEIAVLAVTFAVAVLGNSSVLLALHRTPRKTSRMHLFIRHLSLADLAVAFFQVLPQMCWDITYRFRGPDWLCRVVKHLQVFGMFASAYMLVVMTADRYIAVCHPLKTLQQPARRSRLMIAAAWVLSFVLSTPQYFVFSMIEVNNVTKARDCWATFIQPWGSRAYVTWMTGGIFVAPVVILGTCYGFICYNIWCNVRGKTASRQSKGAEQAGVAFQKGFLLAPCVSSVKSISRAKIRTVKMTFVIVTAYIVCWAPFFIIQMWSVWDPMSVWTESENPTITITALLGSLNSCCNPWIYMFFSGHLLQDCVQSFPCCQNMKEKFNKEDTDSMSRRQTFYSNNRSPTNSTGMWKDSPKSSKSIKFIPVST

On to `CC[C@H](C)[C@@H]1NC(=O)[C@H](Cc2ccco2)NC(=O)[C@@H](N)CSSC[C@@H](C(=O)N2CCC[C@H]2C(=O)N[C@@H](CCCN)C(=O)NCC(N)=O)NC(=O)[C@H](CC(N)=O)NC(=O)[C@H](CCC(N)=O)NC1=O` [Compound 32] (H-C[Ala(2-furyl)]IQNCP[Orn]G-NH2; disulfide 1-6), for which the concentration giving a half-maximal response (EC50) came to 2.64 nM.

For orientation: EC50 means the midpoint of the concentration-response curve.
